Entries after “also recorded” stand apart in the source; their conditions may differ. Where a SMILES comes first, the peptide text is derived from it. [ ]: non-standard residue; d: D form. The star is where a group is joined. Phe(4-Br) = N[C@@H](Cc1ccc(Br)cc1)C(=O)O; Palmitoyl = CCCCCCCCCCCCCCCC(=O)*; αMeR = C[C@](N)(CCCNC(=N)N)C(=O)O; NMeL = CN[C@@H](CC(C)C)C(=O)O; pGlu = O=C1CC[C@@H](C(=O)O)N1; αMeL = CC(C)C[C@](C)(N)C(=O)O; Nle = CCCC[C@H](N)C(=O)O; Aib = CC(C)(N)C(=O)O
Legend:
anesthetized mice = assay: Blood pressure assay in anesthetized mice; assay type: in vivo; conditions: 1.4 μM/kg body weight injected; for blood pressure lowering (hypotensive) effect: SBP, DBP, MABP
Method: Synthetic peptides 8-19 were tested for blood pressure lowering abilities in anesthetized mice. Apelin peptides were injected through […], monitoring blood pressure (BP) and heart rate (HR) over 60 minutes.
Mice were anaesthetized with 1.5% isoflurane/oxygen, and body temperature was monitored and maintained at 36° C. by a heating pad. The aorta was cannulated via the right carotid artery using a PV loop catheter (Model 1.2F from Scisense, Transonic) in order to continuously record arterial blood pressure and heart rate (LabScribe 2.0, Scisense). […] Results are reported as systolic blood pressure (SBP), diastolic blood pressure (DBP), mean arterial blood pressure (MABP) and heart rate (HR).
Apelin peptides 11, 56-59 as well as the KLKB1-cleavage fragments 54 and 55 were tested for blood pressure lowering abilities in anesthetized mice.
Mice were anesthetized with 1.5% isoflurane/oxygen, and body temperature was monitored and maintained at 36° C. by a heating pad. The aorta was cannulated via the right carotid artery using a PV loop catheter (model 1.2F from Scisense, Transonic) in order to continuously record arterial blood pressure and heart rate (LabScribe 2.0, Scisense). Compounds 11, and 54-59 or 55-59 (1.4 μM/kg body weight) or the same volume of saline was injected via the right jugular vein. Results are reported as systolic blood pressure (SBP), diastolic blood pressure (DBP), mean arterial blood pressure (MABP), and heart rate (HR) shown in FIGS. 15A-D.
Apelin peptides were delivered systemically via the right internal jugular vein while blood pressure (BP) and heart rate (HR) were continuously monitored in the aorta cannulated via the right carotid artery. All N-terminally extended apelin peptides, except 58, show pronounced and time-stable blood pressure lowering effects (FIGS. 15a-d). […] This correlates with the results obtained from the Ca^2+ mobilization assay.

[1] = target: T1, wild-type rat apelin receptor (Rattus norvegicus, UniProt Q9JHG3); assay: Radioligand binding, displacement of [125I]-pyr-1-apelin-13 on CHO cell membranes; conditions: for weaker affinity compared to 1, by a factor: ratio of Ki to native 1; for Ki: displacement of [125I]-pyr-1-apelin-13 (0.2 nM), CHO membranes, rat apelin receptor-EGFP, means ± SE, read-out: Affinity Ki; for receptor binding affinity (in words): rat apelin receptor
T1 construct: expressed in transfected cells
T1 sequence (Q9JHG3 1-377): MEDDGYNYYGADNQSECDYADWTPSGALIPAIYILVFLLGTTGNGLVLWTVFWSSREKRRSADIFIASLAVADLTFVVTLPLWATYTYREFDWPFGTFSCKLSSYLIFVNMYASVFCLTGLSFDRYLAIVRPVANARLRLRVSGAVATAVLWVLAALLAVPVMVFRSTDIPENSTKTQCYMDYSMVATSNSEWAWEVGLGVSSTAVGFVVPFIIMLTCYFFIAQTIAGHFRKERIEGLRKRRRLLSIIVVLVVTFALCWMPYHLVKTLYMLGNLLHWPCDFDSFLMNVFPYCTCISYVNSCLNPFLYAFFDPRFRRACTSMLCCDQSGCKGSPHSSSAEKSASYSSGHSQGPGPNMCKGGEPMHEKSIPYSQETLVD
Method: This experiment evaluated the ability of peptides of the present embodiments to bind to the wild-type rat apelin receptor, in order to examine the impact of synthetic modification within the critical RPRL motif of the apelin peptides.
Membrane preparations from CHO cells stably expressing the wild-type rat apelin receptor-EGFP were prepared as previously described (Gerbier et al., New Structural Insights Into The Apelin Receptor: Identification Of Key Residues For Apelin binding; FASEB J. 2015, 29, 314-322; Iturrioz et. al., Development Of Original Metabolically-Stable Apelin-17 Peptides With Diuretic And Cardiovascular Effects; FASEB J. 2017, 31, 687-700.) Crude membrane preparations (1 μg total mass of membranes/assay) were incubated for 3 h at 20° C. with 0.2 nM [^125I]-pyr-1-apelin-13 (monoiodinated on Lys^8 with Bolton-Hunter reagent, Perkin Elmer, Wellesley, Mass., USA) in binding buffer (50 mM HEPES, 5 mM MgCl2 1149 pH 7.5, BSA 1%) alone or in presence of the different compounds at various concentrations. The reaction was stopped by adding 4 mL of cold binding buffer, filtered on Whatman GF/C filters and washed with 5 mL of cold binding buffer. Radioactivity was then counted using a Wizard 1470 Wallac gamma counter (Perkin Elmer, Turku, Finland). Binding experiment data were analyzed with Graph Pad Prism.

in vitro = conditions: human, plasma

| Structure (SMILES) | weaker affinity compared to 1, by a factor [1] | remaining at 0.5 h, 80 µM (in vitro) [%] | remaining at 1 h, 80 µM (in vitro) [%] | Ki [1] [pM] | receptor binding affinity (in words) [1] | blood pressure lowering (hypotensive) effect (anesthetized mice) | effect on heart rate (HR) (anesthetized mice) |
| --- | --- | --- | --- | --- | --- | --- | --- |
| CCCC[C@H](NC(=O)[C@@H]1CCCN1C(=O)CNC(=O)[C@H](CCCCN)NC(=O)[C@H](Cc1c[nH]cn1)NC(=O)[C@H](CO)NC(=O)[C@@H](CC(C)C)NC(=O)[C@H](CCCNC(=N)N)NC(=O)[C@@H]1CCCN1C(=O)[C@H](CCCNC(=N)N)NC(=O)[C@H](CCC(N)=O)NC(=O)[C@H](CCCNC(=N)N)NC(=O)[C@H](CCCNC(=N)N)NC(=O)[C@H](Cc1ccccc1)NC(=O)[C@@H](N)CCCCN)C(=O)NC(C)(C)C(=O)N[C@@H](Cc1ccc(Br)cc1)C(=O)O [Peptide 9] (H-KFRRQRPR[dL]SHKGP[Nle][Aib][Phe(4-Br)]-OH; N-terminus and C-terminus assumed) | – | 80 ± 3 | 80 ± 4 | 140 ± 56 | – | inactivity; also recorded: without inducing any vasoactive effects | had an impact on the heart rate |
| CCCC[C@H](NC(=O)[C@@H]1CCCN1C(=O)CNC(=O)[C@H](CCCCN)NC(=O)[C@H](Cc1c[nH]cn1)NC(=O)[C@H](CO)NC(=O)[C@H](CC(C)C)NC(=O)[C@](C)(CCCNC(=N)N)NC(=O)[C@@H]1CCCN1C(=O)[C@H](CCCNC(=N)N)NC(=O)[C@@H]1CCC(=O)N1)C(=O)NC(C)(C)C(=O)N[C@@H](Cc1ccc(Br)cc1)C(=O)O [Peptide 12, pGlu-Arg-Pro-αMeArg-Leu-Ser-His-Lys-Gly-Pro-Nle-Aib-paraBrPhe] ([pGlu]RP[αMeR]LSHKGP[Nle][Aib][Phe(4-Br)]-OH; C-terminus assumed) | 2 | – | 62 ± 6 | 560 ± 33 | – | – | – |
| CCCC[C@H](NC(=O)[C@@H]1CCCN1C(=O)CNC(=O)[C@H](CCCCN)NC(=O)[C@H](Cc1c[nH]cn1)NC(=O)[C@H](CO)NC(=O)[C@](C)(CC(C)C)NC(=O)[C@H](CCCNC(=N)N)NC(=O)[C@@H]1CCCN1C(=O)[C@H](CCCNC(=N)N)NC(=O)[C@H](CCC(N)=O)NC(=O)[C@H](CCCNC(=N)N)NC(=O)[C@H](CCCNC(=N)N)NC(=O)[C@H](Cc1ccccc1)NC(=O)[C@@H](N)CCCCN)C(=O)NC(C)(C)C(=O)N[C@@H](Cc1ccc(Br)cc1)C(=O)O [Peptide 15] (H-KFRRQRPR[αMeL]SHKGP[Nle][Aib][Phe(4-Br)]-OH; N-terminus and C-terminus assumed) | – | 77 ± 4 | 48 ± 7 | – | – | without inducing any vasoactive effects | had an impact on the heart rate |
| CCCC[C@H](NC(=O)[C@@H]1CCCN1C(=O)CNC(=O)[C@H](CCCCN)NC(=O)[C@H](Cc1c[nH]cn1)NC(=O)[C@H](CO)NC(=O)[C@H](CC(C)C)NC(=O)[C@H](CCCNC(=N)N)NC(=O)[C@@H]1CCCN1C(=O)[C@H](CCCNC(=N)N)NC(=O)[C@H](CCC(N)=O)NC(=O)[C@@H](N)CCCNC(=N)N)C(=O)NC(C)(C)C(=O)N[C@@H](Cc1ccc(Br)cc1)C(=O)O [Peptide 54] (H-RQRPRLSHKGP[Nle][Aib][Phe(4-Br)]-OH; C-terminus assumed) | – | – | – | – | – | inactive or nearly so | – |
| CCCC[C@H](NC(=O)[C@@H]1CCCN1C(=O)CNC(=O)[C@H](CCCCN)NC(=O)[C@H](Cc1c[nH]cn1)NC(=O)[C@H](CO)NC(=O)[C@H](CC(C)C)N(C)C(=O)[C@H](CCCNC(=N)N)NC(=O)[C@@H]1CCCN1C(=O)[C@H](CCCNC(=N)N)NC(=O)[C@H](CCC(N)=O)NC(=O)[C@@H](N)CCCNC(=N)N)C(=O)NC(C)(C)C(=O)N[C@@H](Cc1ccc(Br)cc1)C(=O)O [Peptide 55, Arg-Gln-Arg-Pro-Arg-NMeLeu-Ser-His-Lys-Gly-Pro-Nle-Aib-paraBrPhe] (H-RQRPR[NMeL]SHKGP[Nle][Aib][Phe(4-Br)]-OH; C-terminus assumed) | – | – | – | – | – | inactive or nearly so | – |
| CCCCCCCCCCCCCCCC(=O)N[C@@H](CCCCN)C(=O)N[C@@H](Cc1ccccc1)C(=O)N[C@@H](CCCNC(=N)N)C(=O)N[C@@H](CCCNC(=N)N)C(=O)N[C@@H](CCC(N)=O)C(=O)N[C@@H](CCCNC(=N)N)C(=O)N1CCC[C@H]1C(=O)N[C@@H](CCCNC(=N)N)C(=O)N[C@@H](CC(C)C)C(=O)N[C@@H](CO)C(=O)N[C@@H](Cc1c[nH]cn1)C(=O)N[C@@H](CCCCN)C(=O)NCC(=O)N1CCC[C@H]1C(=O)N[C@@H](CCCC)C(=O)NC(C)(C)C(=O)N[C@@H](Cc1ccc(Br)cc1)C(=O)O [Peptide 56] (Palmitoyl-KFRRQRPRLSHKGP[Nle][Aib][Phe(4-Br)]-OH; C-terminus assumed) | – | – | – | – | – | more potent than apelin-17 (2) and apelin-17A2 (5) | – |

Now from value to compound, other results behind:

| weaker affinity compared to 1, by a factor [1] | remaining at 0.5 h, 80 µM (in vitro) [%] | remaining at 1 h, 80 µM (in vitro) [%] | Ki [1] [pM] | receptor binding affinity (in words) [1] | Structure (SMILES) | blood pressure lowering (hypotensive) effect (anesthetized mice) | effect on heart rate (HR) (anesthetized mice) |
| --- | --- | --- | --- | --- | --- | --- | --- |
| 6 | 77 ± 19 | 65 ± 14 | – | – | CCCC[C@H](NC(=O)[C@@H]1CCCN1C(=O)CNC(=O)[C@H](CCCCN)NC(=O)[C@H](Cc1c[nH]cn1)NC(=O)[C@H](CO)NC(=O)[C@H](CC(C)C)NC(=O)[C@H](CCCNC(=N)N)NC(=O)[C@@H]1CCCN1C(=O)[C@H](CCCNC(=N)N)NC(=O)[C@@H]1CCC(=O)N1)C(=O)NC(C)(C)C(=O)N[C@@H](Cc1ccc(Br)cc1)C(=O)O [Peptide 4] ([pGlu]RPRLSHKGP[Nle][Aib][Phe(4-Br)]-OH; C-terminus assumed) | potent physiological effects | – |
| – | 32 ± 2 | 22 ± 1 | 120 ± 35 | modest improvement in receptor binding | CCCC[C@H](NC(=O)[C@@H]1CCCN1C(=O)CNC(=O)[C@H](CCCCN)NC(=O)[C@H](Cc1c[nH]cn1)NC(=O)[C@H](CO)NC(=O)[C@@H](CC(C)C)NC(=O)[C@H](CCCNC(=N)N)NC(=O)[C@@H]1CCCN1C(=O)[C@H](CCCNC(=N)N)NC(=O)[C@@H]1CCC(=O)N1)C(=O)NC(C)(C)C(=O)N[C@@H](Cc1ccc(Br)cc1)C(=O)O [Peptide 8, pGlu-Arg-Pro-Arg-D-Leu-Ser-His-Lys-Gly-Pro-Nle-Aib-paraBrPhe] ([pGlu]RPR[dL]SHKGP[Nle][Aib][Phe(4-Br)]-OH; C-terminus assumed) | no ability to decrease blood pressure; also recorded: inactivity | – |
| – | 77 ± 3 | 59 ± 6 | 100 ± 48 | modest improvement in receptor binding | CCCC[C@H](NC(=O)[C@@H]1CCCN1C(=O)CNC(=O)[C@H](CCCCN)NC(=O)[C@H](Cc1c[nH]cn1)NC(=O)[C@H](CO)NC(=O)[C@H](CC(C)C)N(C)C(=O)[C@H](CCCNC(=N)N)NC(=O)[C@@H]1CCCN1C(=O)[C@H](CCCNC(=N)N)NC(=O)[C@@H]1CCC(=O)N1)C(=O)NC(C)(C)C(=O)N[C@@H](Cc1ccc(Br)cc1)C(=O)O [Peptide 10, pGlu-Arg-Pro-Arg-NMeLeu-Ser-His-Lys-Gly-Pro-Nle-Aib-paraBrPhe] ([pGlu]RPR[NMeL]SHKGP[Nle][Aib][Phe(4-Br)]-OH; C-terminus assumed) | no ability to decrease blood pressure; also recorded: without inducing any vasoactive effects | significant and pronounced effect of increasing the murine HR; also recorded: had an impact on the heart rate |

From US10640545B2 (THE GOVERNORS OF THE UNIVERSITY OF ALBERTA, priority 2017, dated 2020)
